This passage reports IC50 results from patent US10323022B2, “Pyrrolidinyl urea, pyrrolidinyl thiourea and pyrrolidinyl guanidine compounds as TrkA kinase inhibitors” (Array BioPharma Inc., priority 2011, dated 2019).

Counter-ions that a name gives are not always drawn. A value given as a limit tells only on which side of the number the result lay.

For this experiment, the target named is TrkA (Homo sapiens (Human), UniProt P04629). The experiment is described as follows: TrkA Omnia Assay. The format is biochemical. The conditions noted are these: averaged IC50; 20 nM enzyme, 500 μM ATP, 10 μM peptide substrate. Put shortly: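 Recombinant TrkA (20 nM) preincubated 10 min at ambient temperature with compound, then Omnia Tyr Peptide #4 (10 μM) and ATP (500 μM) added in 25 mM MOPS pH 7.5, 5 mM MgCl2, 0.005% Triton X-100. Fluorescence (ex 360/em 485 nm) followed continuously for 70 min; IC50 from initial rates by 4- or 5-parameter logistic fit.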
Sequence of TrkA (P04629 33-796): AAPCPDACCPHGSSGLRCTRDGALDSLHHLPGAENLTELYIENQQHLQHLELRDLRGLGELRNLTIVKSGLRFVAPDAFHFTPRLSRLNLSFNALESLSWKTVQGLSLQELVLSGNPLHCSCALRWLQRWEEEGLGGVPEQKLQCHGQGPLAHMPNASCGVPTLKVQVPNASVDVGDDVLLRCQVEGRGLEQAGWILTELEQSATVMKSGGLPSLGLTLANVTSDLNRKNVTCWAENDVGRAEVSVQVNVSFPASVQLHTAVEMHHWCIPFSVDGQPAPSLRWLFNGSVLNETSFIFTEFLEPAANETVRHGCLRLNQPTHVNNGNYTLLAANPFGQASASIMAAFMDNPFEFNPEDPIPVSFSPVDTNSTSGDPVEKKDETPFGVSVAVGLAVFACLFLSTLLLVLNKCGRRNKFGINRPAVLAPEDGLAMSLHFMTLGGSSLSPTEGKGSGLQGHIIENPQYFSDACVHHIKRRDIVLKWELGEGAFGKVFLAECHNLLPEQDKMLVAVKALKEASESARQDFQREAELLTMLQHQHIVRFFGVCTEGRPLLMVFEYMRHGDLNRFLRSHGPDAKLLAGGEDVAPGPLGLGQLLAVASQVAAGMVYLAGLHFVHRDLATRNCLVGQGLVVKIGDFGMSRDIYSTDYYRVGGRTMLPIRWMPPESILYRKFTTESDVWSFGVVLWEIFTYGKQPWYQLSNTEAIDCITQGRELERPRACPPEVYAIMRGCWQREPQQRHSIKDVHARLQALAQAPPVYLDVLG
Take `COCCN1C[C@@H](NC(=O)Nc2c(OC)c(C)nn2-c2ccccc2)[C@H](c2ccc(F)c(F)c2)C1` [Example 131, 1-((3S,4R)-4-(3,4-difluorophenyl)-1-(2-methoxyethyl)pyrrolidin-3-yl)-3-(4-methoxy-3-methyl-1-phenyl-1H-pyrazol-5-yl)urea]: the IC50 is below 100 nM.

With `COCCN1C[C@@H](NC(=O)Nc2c(C)c(-c3cnc(OC)nc3)nn2-c2ccccc2)[C@H](c2ccc(F)c(F)c2)C1` [Example 526, 1-((3S,4R)-4-(3,4-difluorophenyvl)-1-(2-methoxyethyl)pyrrolidin-3-yl)-3-(3-(2-methoxypyrimidin-5-yl)-4-methyl-1-phenyl-1H-pyrazol-5-yl)urea], the IC50 was below 100 nM.

In turn, `COCCN1C[C@@H](NC(=O)Nc2c(-c3ccccc3)cnn2C)[C@H](c2ccccc2)C1` (relative stereo) [Example 31, 1-(trans-1-(2-methoxyethyl)-4-phenylpyrrolidin-3-yl)-3-(1-methyl-4-phenyl-1H-pyrazol-5-yl)urea] returned a half-inhibitory concentration (IC50) of 100 to 1000 nM.

The compound `COCCN1C[C@@H](NC(=O)Nc2cc(-c3ccc(C#N)cc3)nn2C)[C@H](c2ccc(F)c(F)c2)C1` [Example 60, 1-(3-(4-cyanophenyl)-1-methyl-1H-pyrazol-5-yl)-3-((3S,4R)-4-(3,4-difluorophenyl)-1-(2-methoxyethyl)pyrrolidin-3-yl)urea] gave an IC50 below 100 nM.

Turning to `COCCN1C[C@@H](NC(=N)Nc2c(Br)c(C)nn2-c2ccccc2)[C@H](c2ccc(F)c(F)c2)C1` [Example 629, 1-(4-bromo-3-methyl-1-phenyl-1H-pyrazol-5-yl)-3-((3S,4R)-4-(3,4-difluorophenyl)-1-(2-methoxyethyl)pyrrolidin-3-yl)guanidine dihydrochloride], the IC50 lay in the range of 1000 to 10000 nM.

Regarding `COCCN1C[C@@H](NC(=O)Nc2c(C)c(=O)[nH]n2-c2ccccc2)[C@H](c2cc(F)cc(F)c2)C1` [Example 611, 1-((3S,4R)-4-(3,5-difluorophenyl)-1-(2-methoxyethyl)pyrrolidin-3-yl)-3-(4-methyl-5-oxo-2-phenyl-2,5-dihydro-1H-pyrazol-3-yl)urea], the IC50 was below 100 nM.

Regarding `COCCN1C[C@@H](NC(=O)Nc2c(C)c(OCCO)nn2-c2ccccc2)[C@H](c2ccc(F)c(F)c2)C1` [Example 178, 1-((3S,4R)-4-(3,4-difluorophenyl)-1-(2-methoxyethyl)pyrrolidin-3-yl)-3-(3-(2-hydroxyethoxy)-4-methyl-1-phenyl-1H-pyrazol-5-yl)urea hydrochloride], the IC50 is below 100 nM.

Turning to `COCCN1C[C@@H](NC(=O)Nc2cnn3ccccc23)[C@H](c2ccc(F)c(F)c2)C1` [Example 637, 1-((3S,4R)-4-(3,4-difluorophenyl)-1-(2-methoxyethyl)pyrrolidin-3-yl)-3-(pyrazolo[1,5-a]pyridin-3-yl)urea], the IC50 was below 100 nM.

With `COCCN1C[C@@H](NC(=O)Nc2c(Cl)c(CC(C)(C)O)nn2-c2ccccc2)[C@H](c2ccc(F)c(F)c2)C1` [Example 415, 1-(4-chloro-3-(2-hydroxy-2-methylpropyl)-1-phenyl-1H-pyrazol-5-yl)-3-((3S,4R)-4-(3,4-difluorophenyl)-1-(2-methoxyethyl)pyrrolidin-3-yl)urea], the IC50 is below 100 nM.

Compound `COCCN1C[C@@H](NC(=O)Nc2c(Br)c(-c3ccccn3)nn2-c2ccccc2)[C@H](c2ccc(F)c(F)c2)C1` [Example 484, 1-(4-bromo-1-phenyl-3-(pyridin-2-yl)-1H-pyrazol-5-yl)-3-((3S,4R)-4-(3,4-difluorophenyl)-1-(2-methoxyethyl)pyrrolidin-3-yl)urea] registered an IC50 below 100 nM.

Consider `COCCN1C[C@@H](NC(=O)Nc2c(C(F)(F)F)nn(C)c2-c2ccccc2)[C@H](c2ccc(F)c(F)c2)C1` [Example 646, 1-((3S,4R)-4-(3,4-difluorophenyl)-1-(2-methoxyethyl)pyrrolidin-3-yl)-3-(1-methyl-5-phenyl-3-(trifluoromethyl)-1H-pyrazol-4-yl)urea], for which the IC50 fell in the range of 100 to 1000 nM.

Turning to `COC[C@@H](N1C[C@@H](NC(=O)Nc2c(Cl)c(-c3cnn(C)c3)nn2-c2ccccc2)[C@H](c2ccc(F)c(F)c2)C1)C(F)(F)F` [Example 278, 1-(4-chloro-1′-methyl-1-phenyl-1H, 1′H-3,4′-bipyrazol-5-yl)-3-((3S,4R)-4-(3,4-difluorophenyl)-1-((R)-1,1,1-trifluoro-3-methoxypropan-2-yl)pyrrolidin-3-yl)urea], the half-inhibitory concentration (IC50) was below 100 nM.

Turning to `COCCN1C[C@@H](NC(=O)Nc2c(C)c(C(=O)O)nn2-c2ccccc2)[C@H](c2ccc(F)c(F)c2)C1` [Example 458, 5-(3-((3S,4R)-4-(3,4-difluorophenyl)-1-(2-methoxyethyl)pyrroidin-3-yl)ureido)-4-methyl-1-phenyl-1H-pyrazole-3-carboxylic acid], the half-maximal inhibitory concentration (IC50) lay in the range of 100 to 1000 nM.

With `COCCN1C[C@@H](NC(=O)Nc2c(C)c(-c3cnn(C)c3)nn2-c2ccccc2)[C@H](c2ccc(F)c(Cl)c2)C1` (relative stereo) [Example 293, 1-(trans-4-(3-chloro-4-fluorophenyl)-1-(2-methoxyethyl)pyrrolidin-3-yl)-3-(1′,4-dimethyl-1-phenyl-1H,1′H-[3,4′-bipyrazol]-5-yl)urea], the half-inhibitory concentration (IC50) was below 100 nM.

For the compound `O=C(Nc1c2c(nn1-c1ccccc1)CCC2)N[C@@H]1CN(Cc2ncc[nH]2)C[C@H]1c1ccccc1` (relative stereo) [Example 257, 1-((trans)-1-((1H-imidazol-2-yl)methyl)-4-phenylpyrrolidin-3-yl)-3-(2-phenyl-2,4,5,6-tetrahydrocyclopenta[c]pyrazol-3-yl)urea], the IC50 lay within 100 to 1000 nM.

Regarding `COCCN1C[C@@H](NC(=O)Nc2c(C)c(-c3cc(C)nn3C)nn2-c2ccccc2)[C@H](c2ccc(F)c(F)c2)C1` [Example 308, 1-((3S,4R)-4-(3,4-difluorophenyl)-1-(2-methoxyethyl)pyrrolidin-3-yl)-3-(2′,4,5′-trimethyl-1-phenyl-1H,2′H-[3,3′-bipyrazol]-5-yl)urea], the IC50 was below 100 nM.

`CCc1nn(-c2ccccc2)c(NC(=O)N[C@@H]2CN(CCOC)C[C@H]2c2ccc(F)c(F)c2)c1C(N)=O` [Example 621, 5-(3-((3S,4R)-4-(3,4-difluorophenyl)-1-(2-methoxyethyl)pyrrolidin-3-yl)ureido)-3-ethyl-1-phenyl-1H-pyrazole-4-carboxamide] yielded an IC50 below 100 nM.

Turning to `CCOc1nn(-c2ccccc2)c(NC(=O)N[C@@H]2CN(CCOC)C[C@H]2c2cc(F)cc(F)c2)c1C` [Example 138, 1-((3S,4R)-4-(3,5-difluorophenyl)-1-(2-methoxyethyl)pyrrolidin-3-yl)-3-(3-ethoxy-4-methyl-1-phenyl-1H-pyrazol-5-yl)urea], the IC50 is below 100 nM.

With `COCCN1C[C@@H](NC(=O)Nc2c3c(nn2-c2cccnc2)CCC3)[C@H](c2ccccc2)C1` (relative stereo) [Example 19, 1-(trans-1-(2-methoxyethyl)-4-phenylpyrrolidin-3-yl)-3-(2-(pyridin-3-yl)-2,4,5,6-tetrahydrocyclopenta[c]pyrazol-3-yl)urea], the IC50 was 100 to 1000 nM.

Turning to `N#CCN1C[C@@H](NC(=O)Nc2c3c(nn2-c2ccccc2)CCC3)[C@H](c2ccccc2)C1` [Example 188, 1-((3,4-trans)-1-(cyanomethyl)-4-phenylpyrrolidin-3-yl)-3-(2-phenyl-2,4,5,6-tetrahydrocyclopenta[c]pyrazol-3-yl)urea], the IC50 was 100 to 1000 nM.

In turn, `COCCN1C[C@@H](NC(=O)Nc2c(C)c(CCO)nn2-c2ccccc2)[C@H](c2ccc(F)c(F)c2)C1` [Example 133, 1-((3S,4R)-4-(3,4-difluorophenyl)-1-(2-methoxyethyl)pyrrolidin-3-yl)-3-(3-(2-hydroxy-ethyl)-4-methyl-1-phenyl-1H-pyrazol-5-yl)urea] had an IC50 below 100 nM.

For the compound `COCCN1C[C@@H](NC(=O)Nc2c3c(nn2-c2ccccc2)CCC3)[C@H](c2ccccc2)C1` (relative stereo) [Example 14, 1-(trans-1-(2-methoxyethyl)-4-phenylpyrrolidin-3-yl)-3-(2-phenyl-2,4,5,6-tetrahydrocyclopenta[c]pyrazol-3-yl)urea], the IC50 is below 100 nM.

On to `COCCN1C[C@@H](NC(=O)Nc2cc(C(C)C)nn2-c2ccccc2)[C@H](c2ccc(F)c(F)c2)C1` (relative stereo) [Example 4, trans-1-(4-(3,4-difluorophenyl)-1-(2-methoxyethyl)pyrrolidin-3-yl)-3-(3-isopropyl-1-phenyl-1H-pyrazol-5-yl) urea], for which the half-inhibitory concentration (IC50) is below 100 nM.

As for `COCCN1C[C@@H](NC(=O)Nc2c(C)c(OCc3ncn(C)n3)nn2-c2ccccc2)[C@H](c2ccc(F)c(F)c2)C1` [Example 391, 1-((3S,4R)-4-(3,4-difluorophenyl)-1-(2-methoxyethyl)pyrrolidin-3-yl)-3-(4-methyl-3-((1-methyl-1H-1,2,4-triazol-3-yl)methoxy)-1-phenyl-1H-pyrazol-5-yl)urea], the IC50 is below 100 nM.

`Cc1nn(-c2ccccc2)c(NC(=O)N[C@@H]2CN(c3cn[nH]c3)C[C@H]2c2cc(F)cc(F)c2)c1C` [Example 223, 1-((3S,4R)-4-(3,5-difluoro-phenyl)-1-(1H-pyrazol-4-yl)pyrrolidin-3-yl)-3-(3,4-dimethyl-1-phenyl-1H-pyrazol-5-yl)urea] showed an IC50 below 100 nM.

Compound `COCCN1C[C@@H](NC(=O)Nc2c(C)c(OC[C@H](O)CO)nn2-c2ccccc2)[C@H](c2cc(F)cc(F)c2)C1` [Example 558, 1-((3S,4R)-4-(3,5-difluorophenyl)-1-(2-methoxyethyl)pyrrolidin-3-yl)-3-(3-((R)-2,3-dihydroxypropoxy)-4-methyl-1-phenyl-1H-pyrazol-5-yl)urea] came in with an IC50 below 100 nM.

The compound `CCc1nn(-c2ccccc2)c(NC(=O)N[C@@H]2CN(CCOC)C[C@H]2c2ccc(F)c(F)c2)c1C` [Example 72, 1-((3S,4R)-4-(3,4-difluorophenyl)-1-(2-methoxyethyl)pyrrolidin-3-yl)-3-(3-ethyl-4-methyl-1-phenyl-1H-pyrazol-5-yl)urea] showed an IC50 below 100 nM.

Usually IC50 stands for the point on the concentration scale where inhibition reaches its midpoint.
